Five molecules from patent publication US4406902A, “Dipeptidase inhibitors” (Merck & Co., Inc., priority 1981, dated 1983) can be followed below.

For orientation: Ki means a measure of affinity in units of concentration, obtained from inhibition or displacement.

For data set [1], the target named is T1, renal dipeptidase (E.C.3.4.13.11) (Sus scrofa, UniProt P22412).
T1 construct: solubilized preparation of dipeptidase isolated from hog kidneys; from tissue; host or cells: hog kidney (solubilized, lyophilized enzyme preparation)
T1 sequence (P22412 17-409): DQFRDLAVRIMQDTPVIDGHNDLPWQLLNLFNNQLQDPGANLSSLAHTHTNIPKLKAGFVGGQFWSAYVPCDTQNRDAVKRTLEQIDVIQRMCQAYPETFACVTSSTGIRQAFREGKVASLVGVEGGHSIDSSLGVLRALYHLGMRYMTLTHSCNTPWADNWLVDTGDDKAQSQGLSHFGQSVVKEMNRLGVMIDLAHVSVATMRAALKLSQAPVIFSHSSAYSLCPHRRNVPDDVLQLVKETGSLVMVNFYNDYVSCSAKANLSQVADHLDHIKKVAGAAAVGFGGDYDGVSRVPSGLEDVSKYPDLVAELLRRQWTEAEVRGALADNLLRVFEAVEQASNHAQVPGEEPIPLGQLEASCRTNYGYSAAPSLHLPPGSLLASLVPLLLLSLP
The data set can be described thus: in vitro screen: inhibition of hydrolysis of glycyldehydrophenylalanine (GDP) by solubilized dipeptidase from hog kidneys. Format: biochemical. To be noted: GDP 0.05 mM; pH 7.1; 37° C.; hog kidney dipeptidase; read-out: inhibitor binding constant, Ki (ki). As to the method:
This measured the ability of compounds to inhibit hydrolysis of glycyldehydrophenylalanine (GDP) by a solubilized preparation of dipeptidase isolated from hog kidneys. The procedure is as follows: to a 1 ml. system containing 50 mM "MOPS" (3-(N-morpholino)propanesulfonic acid) buffer, pH 7.1, is added 5 μg of lyophilized enzyme, and the test compound at a final concentration of 0.1 mM. After a five minute incubation at 37° C., GDP is added to a final concentration of 0.05 mM. […] Inhibition of the enzyme is gauged by comparison to a standard run containing no inhibitor and is expressed as the inhibitor binding constant, Ki.

In the next data set the target is T2, renal dipeptidase (Sus scrofa, UniProt P22412).
T2 construct: GPI-anchored homodimer
T2 sequence (P22412 17-384): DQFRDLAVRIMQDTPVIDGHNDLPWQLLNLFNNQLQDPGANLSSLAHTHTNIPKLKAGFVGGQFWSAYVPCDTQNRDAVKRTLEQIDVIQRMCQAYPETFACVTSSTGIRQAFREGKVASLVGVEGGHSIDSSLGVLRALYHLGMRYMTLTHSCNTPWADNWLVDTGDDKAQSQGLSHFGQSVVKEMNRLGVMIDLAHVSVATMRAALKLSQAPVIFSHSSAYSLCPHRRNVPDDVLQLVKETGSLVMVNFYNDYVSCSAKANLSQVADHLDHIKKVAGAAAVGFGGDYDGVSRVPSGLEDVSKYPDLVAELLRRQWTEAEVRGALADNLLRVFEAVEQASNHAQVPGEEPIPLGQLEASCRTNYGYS
Description: hydrolysis of GDP and thienamycin as substrates by renal dipeptidase. Format: biochemical, hog. To be noted: GDP compared with thienamycin.

Data set [2] in a line: disposition studies with thienamycin, its natural analogs and semi-synthetic derivatives (urinary recovery, plasma half-life). Type of data set: in vivo. To be noted: mouse, rat, dog, chimpanzee, Rhesus monkey. As to the method: Chem., 205 65 (1932); see also Greenstein, J. P., Advances in Enzymology, Vol. VIII, Wiley-Interscience, (1948), New York, and Campbell, B. J.; Lin, Y-C., Davis, R. V. and Ballew, E., "The Purification and Properties of Particulate Renal Dipeptidase", Biochim. Biophys. Acta., 118, 371 (1966).
Urinary recovery of thienamycin was measured in all cases with the use of a cylinder or disc diffusion assay, conducted in a manner described in U.S. Pat. No. 3,950,357. This bioassay, with Staphylococcus aureus ATCC 6538 as the test organism, has a useful response range from 0.04 μg/ml to 3.0 μg/ml.

`CC1(C)CC1C(=O)N/C(=C\CCCCSc1ncccc1C(=O)O)C(=O)O` (racemic) [Example 3, Racemic Z-7-(3-carboxy-2-pyridylthio)-2-(2,2-dimethylcyclopropanecarboxamido)-2-heptenoic acid]: in data set [1], the Ki was determined as 0.04 µM.

Regarding `CC1(C)CC1C(=O)N/C(=C\CCCCSc1ccc(C(=O)O)cn1)C(=O)O` (racemic) [Example 4, Racemic Z-7-(5-carboxy-2-pyridylthio)-2-(2,2-dimethylcyclopropanecarboxamido)-2-heptenoic acid], in data set [1], the Ki was determined as 0.25 µM.

Turning to `CC1(C)CC1C(=O)N/C(=C\CCCCSc1ncccc1O)C(=O)O` (single isomer, unassigned; (+)) [Example 2, (+)-Z-2-(2,2-Dimethylcyclopropanecarboxamido)-7-(3-hydroxy-2-pyridylthio)-2-heptenoic acid], the Ki in data set [1] is 0.02 µM.

For the molecule `NCC(=O)NC(=Cc1ccccc1)C(=O)O` [GDP, glycyldehydrophenylalanine], the “maximal velocity of hydrolysis by renal dipeptidase” value at renal dipeptidase is given as “much higher maximal velocity of hydrolysis”.

Regarding `C[C@@H](O)[C@H]1C(=O)N2C(C(=O)O)=C(SCCN)C[C@H]12` [thienamycin], in data set [2], the plasma half-life entry is “short plasma half-lives” and the urinary recovery entry was “low urinary recovery”.
